Test results from paper PMC9967700, “Metabolism-Guided Optimization of Tryptophanol-Derived Isoindolinone p53 Activators” (Pharmaceuticals, 2023).

What was measured:
HCT116 p53+/+ cells = assay: Antiproliferative activity, sulforhodamine B (SRB) assay; assay type: cell-based, human
Description: Tumor cells were cultured in RPMI-1640 with UltraGlutamine (Lonza, VWR), supplemented with 10% fetal bovine serum (FBS; Gibco, Alfagene) and maintained in a humidified incubator at 37 °C with 5% CO2. Cell lines were seeded in 96-well plates at the cells/well density of 5.0 × 10^3.

[1] = In vitro reactions with bionucleophiles; conditions: with or without enzymatic conditions (S9 rat liver incubations)
Description: To a solution of compound 13d in acetonitrile (1.00 eq., 10.1 mg in 400 µL, 5.04 × 10^−2 M) reduced glutathione (4.00 eq. 25.2 mg, 82.00 µmol) dissolved in 400 µL of ABIC buffer 50 mM pH 7.4 was added. The reaction mixture was incubated for 24 h at 37 °C and monitored by LC-ESI-HRMS/MS.
To a solution of compound 13k in acetonitrile (1.00 eq., 4.3 mg in 200 µL, 3.92 × 10^−2 M) reduced glutathione (4.00 eq. 9.64 mg, 31.36 µmol) dissolved in 200 µL of ABIC buffer 50 mM pH 7.4 was added. The reaction mixture was incubated for 24 h at 37 °C and monitored by LC-ESI-HRMS/MS.
SLMP53-1_M5 (1.00 eq., 2.1 mg, dissolved in 150 µL of ACN) was added to a L-lysine (2 eq.) solution in 50 mM ABIC buffer pH 7.4. Following incubation for 24 h at 37 °C a solution of cyanoborohydride (2 eq) was added. The mixture was analyzed by LC-ESI(+)-HRMS/MS.

CCCn1c(Br)c(C[C@H]2CO[C@]3(c4ccccc4)c4ccccc4C(=O)N23)c2ccccc21 [Compound 13d, (3S, 9bR)-3-((2-bromo-1-propyl-1H-indol-3-yl)methyl)-9b-phenyl-2,3-dihydrooxazolo[2,3-a]isoindol-5(9bH)-one]
more active than SLMP53-2 (7) (HCT116 p53+/+ cells; HCT116 p53+/+): 2 fold
S.I. (selectivity index) (HCT116 p53+/+ cells; HCT116 p53−/− versus HCT116 p53+/+): 1.9
GI50 (HCT116 p53+/+ cells; Homo sapiens, HCT-116, 48 h treatment, mean ± SEM of 3–5 independent experiments, read-out: HCT116 p53+/+ GI50): 4 ± 0.5 µM
products of addition of GSH with concomitant loss of bromine [1]: no products compatible with the addition of GSH, and the concomitant loss of bromine, were detected
